According to patent US5607919A, “Anti-microbial proteins” (Sandoz Ltd., priority 1993, dated 1997):

Key:
Bipolaris maydis = assay: Anti-fungal activity against corn pathogens, microtiter spore assay; type: cell-based; conditions: 120 h; ni = did not inhibit fungal growth
Description: (§1) The AX proteins according to the present invention are assessed for their anti-fungal activity against a number of corn pathogens. Concerning the results depicted in Tables 1 and 2, the assay of the AX proteins in respect of the corn pathogens is performed as follows. Five μl of a solution containing the proteins at the indicated concentrations are aseptically transferred into a well of a sterile, round-bottomed microtiter plate. All treatments are replicated once. Un-inoculated and inoculated culture media minus test protein solution are routinely included as controls. Spores (100-150) are aseptically added to each sample in a 5.0 μl aliquot of double strength Potato Dextrose Broth (PDB).
(§2) Following gentle agitation to mix the protein sample and spore suspension, a double layer of parafilm is wrapped around the lid/plate junction in order to minimize desiccation and the thus wrapped microtiter plate is incubated at 19°±0.2° C. with a 16 h photoperiod.
(§3) Individual wells are scored for spore germination and mycelial growth every 24 h. At the end of 120 h the level of anti-fungal activity is determined.

[1] = system: Exserohilum turcicum race 1; assay: as above; type: cell-based; conditions: 120 h; ni = did not inhibit fungal growth
Description: as §1, §2, §3

Monilinia fructigena = assay: Mycelial growth in agar droplets coated with test protein; type: cell-based; conditions: protein concentration 20 μg/ml; 5 days; ni = did not inhibit
Leptosphaeria nodorum = assay: as above; type: cell-based; conditions: protein concentration 20 μg/ml; 5 days; ni = did not inhibit
Gibberella zeae = type: cell-based; conditions: 120 h; ni = did not inhibit fungal growth
Fusarium graminearum = type: cell-based; conditions: 120 h; ni = did not inhibit fungal growth
Diplodia maydis = assay: Anti-fungal activity against corn pathogens, microtiter spore assay; type: cell-based; conditions: 120 h; ni = did not inhibit fungal growth
Pyricularia oryzae = type: cell-based; conditions: protein concentration 20 μg/ml; 5 days; ni = did not inhibit
Fusarium culmorum = assay: Mycelial growth in agar droplets coated with test protein; type: cell-based; conditions: protein concentration 20 μg/ml; 5 days; ni = did not inhibit
Description: Concerning the results shown in Table 3, the assay of the AX and WIN N proteins in respect of the disclosed pathogens is performed as follows. Mycelium from the disclosed fungi are dispersed in a drop of molten agar which is then solidified. The solid agar droplets comprising the encapsulated mycelia are then coated with the test protein in the specified amount. Following incubation for 5 days under moist conditions the amount of mycelial growth is determined in comparison with controls, in which the agar droplets comprising the fungal roycelia are not coated with test protein. The results presented in […]

Exserohilum turcicum = assay: Anti-fungal activity against corn pathogens, microtiter spore assay (Table 2, race not given); type: cell-based; conditions: 120 h; ni = did not inhibit fungal growth
[2] = system: Exserohilum turcicum race 2; type: cell-based; conditions: 120 h; ni = did not inhibit fungal growth
Fusarium moniliforme = assay: Anti-fungal activity against corn pathogens, microtiter spore assay; type: cell-based; conditions: 120 h; ni = did not inhibit fungal growth
Cochliobolus sativus = assay: Mycelial growth in agar droplets coated with test protein; type: cell-based; conditions: protein concentration 20 μg/ml; 5 days; ni = did not inhibit
Botrytis cinerea = assay: as above; type: cell-based; conditions: protein concentration 20 μg/ml; 5 days; ni = did not inhibit
Rhizoctonia solani = assay: as above; type: cell-based; conditions: 5 days
[3] = system: Colletotrichum graminicola; assay: Anti-fungal activity against corn pathogens, microtiter spore assay; type: cell-based; conditions: 120 h; ni = did not inhibit fungal growth
[4] = system: Pseudocercosporella herpotrichoides; assay: Mycelial growth in agar droplets coated with test protein; type: cell-based; conditions: 5 days
C. beticola = assay: Inhibition of fungal growth in 96 well micro-titre plates at 620 nm, spores of C. beticola; type: cell-based, Cercospora beticola; conditions: for 50% growth inhibition (I50) / IC50: C. beticola, after 72 hours incubation; for IC50: conversion of the ug/ml value, read-out: 50% growth inhibition (I50); for morphology of the fungus: FIG. 4, AX2 8 μg/ml, WIN 28 μg/ml; for rate of fungal hyphal extension: compared to controls
[5] = protein concentration 20 μg/ml, ni = did not inhibit

Row | Molecule | Minimum inhibitory concentration (Bipolaris maydis) | Protein concentration providing more than 50% growth inhibition (Bipolaris maydis) | Minimum inhibitory concentration [1] | Growth inhibition (Monilinia fructigena) | Growth inhibition (Leptosphaeria nodorum) | Minimum inhibitory concentration (Gibberella zeae) | Protein concentration providing more than 50% growth inhibition (Gibberella zeae) | Minimum inhibitory concentration (Fusarium graminearum) | Protein concentration providing more than 50% growth inhibition (Fusarium graminearum) | Minimum inhibitory concentration (Diplodia maydis) | Protein concentration providing more than 50% growth inhibition (Diplodia maydis) | Growth inhibition (Pyricularia oryzae) | Growth inhibition (Fusarium culmorum) | Protein concentration providing more than 50% growth inhibition (Exserohilum turcicum) | Minimum inhibitory concentration [2] | Minimum inhibitory concentration (Fusarium moniliforme) | Protein concentration providing more than 50% growth inhibition (Fusarium moniliforme) | Growth inhibition (Cochliobolus sativus) | Growth inhibition (Botrytis cinerea) | Minimum inhibitory concentration [3] | further results
1 | AX1: anti-microbial protein from sugar beet leaves infected with Cercospora beticola; residues 29-74 in SEQ ID No. 2, 46 amino acids (AICKKPSKFFKGACGRDADCEKACDQENWPGGVCVPFLRCECQRSC) | 20 µg/mL | 20 µg/mL | 11 µg/mL | 80% | ni | ni | ni | 33 µg/mL | 33 µg/mL | 11 µg/mL | 11 µg/mL | ni | ni | 33 µg/mL | 33 µg/mL | ni | ni | 30% | ni | 50 µg/mL | Growth inhibition (Rhizoctonia solani; [5]): ni; Protein concentration providing more than 50% growth inhibition [3]: 50 µg/mL; Growth inhibition ([4]; protein concentration 20 μg/ml): 30%
2 | AX2: anti-microbial protein from sugar beet leaves infected with Cercospora beticola; residues 29-74 in SEQ ID No. 5, 46 amino acids (ATCRKPSMYFSGACFSDTNCQKACNREDWPNGKCLVGFKCECQRPC) | 30 µg/mL | 33 µg/mL | 98 µg/mL | 80% | 10% | ni | ni | 33 µg/mL | 33 µg/mL | ni | ni | 20% | 10% | ni | ni | ni | ni | 30% | 10% | 50 µg/mL | 50% growth inhibition (I50) (C. beticola): 2 µg/mL; IC50 (C. beticola): ~0.5 µM; morphology of the fungus (C. beticola): markedly changed; growth in vitro of C. beticola (C. beticola; FIGS. 3A and 3B, result in words): greater than that of AX1; rate of fungal hyphal extension (C. beticola): profoundly slow; fungicidal activity against C. beticola (C. beticola; result in words): do not appear to exhibit fungicidal activity; Growth inhibition (Rhizoctonia solani; protein concentration 40 μg/ml): 10%; Protein concentration providing more than 50% growth inhibition [3]: 50 µg/mL; Growth inhibition ([4]; protein concentration 20 μg/ml): 30%
3 | WIN N: chitin-binding WIN protein purified from barley grain or stressed barley leaf; residues 22-146 in SEQ ID No. 11 (protein) QQANNVRATYHYYRPAQNNWDLGAPAVSAYCATWDASKPLSWRSKYGWTAFCGPAGPRGQAACGKCLRVTNPATGAQITARIVDQCANGGLDLDWDTVFTKIDTNGIGYQQGHLNVNYQFVDCRD | ni | ni | ni | ni | ni | ni | ni | ni | ni | 64 µg/mL | 64 µg/mL | ni | ni | 193 µg/mL | 193 µg/mL | ni | ni | ni | ni | ni | 50% growth inhibition (I50) (C. beticola): 160 µg/mL; IC50 (C. beticola): ~11 µM; morphology of the fungus (C. beticola): markedly changed; rate of fungal hyphal extension (C. beticola): profoundly slow; fungicidal activity against C. beticola (C. beticola; result in words): do not appear to exhibit fungicidal activity; Growth inhibition (Rhizoctonia solani; [5]): ni; Protein concentration providing more than 50% growth inhibition [3]: ni; Growth inhibition ([4]; protein concentration 40 μg/ml): 30%
